Reference: US20260315604A1, “OTUB1 Small-Molecule Binders and OTUB1-recruiting Deubiquitinase-targeting Chimeras (DUBTACs)” (ICAHN SCHOOL OF MEDICINE AT MOUNT SINAI, priority 2023, published 2026)

Molecular target: T1, Human OTUB1 wild-type (Homo sapiens, UniProt Q96FW1)
T1 construct: His tag (N); made in house; host or cells: E. coli BL21-CodonPlus (DE3)-RIPIL
Experiment: Covalent modification of OTUB1 (adduct formation), mass spectrometry-based assay (OTUB1 covalent binders; selected CFTR or cGAS based bivalent compounds)
Assay type: binding
Conditions: covalent adduct formation with OTUB1 protein
Description: OTUB1 covalent binders were tested for their ability to form the covalent adduct with OTUB1 protein using a mass-spectrometry based assay.
Example 389. Assessment of the Covalent Modification of OTUB1 Protein by Selected OTUB1 Covalent Binders Using a Mass Spectrometry-Based Assay (FIG. 1)
OTUB1 protein (10 μM) was incubated with selecting compounds (2500 μM) at RT for 1 h. The adduct was qualified by mass spectrometry-based assays.
Example 398. Assessment of the Covalent Modification of OTUB1 Protein by Selected CFTR Based Bivalent Compounds Using Mass Spectrometry-Based Assay (FIG. 10)
OTUB1 protein (10 μM) was incubated with selecting bivalent compounds (2500 μM) at RT for 1 h. The adduct was qualified by mass spectrometry-based assays.
Human OTUB1 wild-type (NM_017670.3) and C23S mutation genes were optimized based on the codon preference of E. coli, synthesized and cloned into pET15b vector with a N-terminal His tag by Genscript, respectively. The plasmid was transferred to BL21-CodonPlus (DE3)-RIPIL Competent Cell (230280, Agilent Technologies) and the recombinant protein was induced expressed by 0.5 mM IPTG at 16° C. with shaking 200 rpm for 18 h. Induced cells were harvested by centrifugation and resuspended in cold lysis buffer (50 mM Tris-H—Cl pH 7.5, 150 mM NaCl, 25 mM imidazole pH 7.5, 0.01% IGEPAL, 5% Glycerol) in the presence of Pierce Protease Inhibitor tablets (PIA32963, Fisher Scientific) and 2 mM TCEP pH 7.5.
The cells were lysed by sonication, clarified by centrifugation, and the filtered supernatant loaded onto a 5 ml HisTrap HP affinity column (17524802, Cytiva) in AKTA system. The His-recombinant protein bound to column was washed using buffer A (50 mM Tris-HCl pH 7.5, 150 mM NaCl, 25 mM imidazole pH 7.5, 0.01% IGEPAL, 5% Glycerol) and eluted with buffer B (50 mM Tris-HCl pH 7.5, 150 mM NaCl, 250 mM imidazole pH 7.5, 0.01% IGEPAL, 5% Glycerol). The eluted fractions containing OTUB1 protein were concentrated and subjected to size exclusion chromatography using a 320 mL HiLoad 26/600 Superdex 200 pg column (28989336, Cytiva) under the buffer condition ([…] Tris-HCl pH 7.5, 150 mM NaCl, and 2 mM TCEP pH 7.5). The eluted fractions containing OTUB1 protein were concentrated, divided into aliquots and stored at −80° C. freezer for further usage.
Quality control of the OTUB1 proteins was performed by SDS-PAGE, Nanodrop and mass spectrometry.
Mass Spectrometry-Based Analysis of OTUB1-Covalent Ligand Adducts
To screen the covalent ligands, recombinant OTUB1 protein (10 μM) was respectively incubated with DMSO, EN523 or seven novel ligands (2500 μM) in reaction buffer (50 mM Tris-HCl pH 7.5, 150 mM NaCl, and 0.5 mM TCEP pH 7.5) for 1 h at room temperature.
Then, the total 500 μL reaction solution was exchanged and concentrated to 50 μL 50 mM ammonium bicarbonate with a 10 kDa MWCO centrifugal filter unit (UFC901024, Millipore) and diluted in MS buffer (30% ACN, 0.2% FA) to a final concentration of […]. Mass spectrometry detection was performed by an Agilent LC/MSD Time-Of-Flight (TOF) mass spectrometer (Agilent Technologies) equipped with an electrospray ion source. The data was analyzed by TOF Protein Confirmation Software. All experiments were performed in duplicate.

T1 sequence (Q96FW1 whole entry): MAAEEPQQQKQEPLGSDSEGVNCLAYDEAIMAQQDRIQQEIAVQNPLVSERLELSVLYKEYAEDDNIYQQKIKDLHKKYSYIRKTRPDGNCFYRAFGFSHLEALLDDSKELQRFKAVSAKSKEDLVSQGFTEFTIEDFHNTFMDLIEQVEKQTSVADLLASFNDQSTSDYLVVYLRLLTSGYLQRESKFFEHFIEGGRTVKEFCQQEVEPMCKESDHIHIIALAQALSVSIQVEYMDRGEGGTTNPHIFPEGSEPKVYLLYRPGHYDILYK

% of OTUB1 modified [%]	SMILES
10	Cc1ccc(C(=O)N2CCC3(CC2)CN(C(=O)/C=C/CN(C)C)C3)s1 [XS185-96, (E)-4-(dimethylamino)-1-(7-(5-methylthiophene-2-carbonyl)-2,7-diazaspiro[3.5]nonan-2-yl)but-2-en-1-one]
90	CN(C)C/C=C/C(=O)N1C2CC1CN(C(=O)c1ccc(C3CCN(C)C3)s1)C2 (stereo not drawn) [XS197-73, (E)-4-(dimethylamino)-1-(3-(5-(1-methylpyrrolidin-3-yl)thiophene-2-carbonyl)-3,6-diazabicyclo[3.1.1]heptan-6-yl)but-2-en-1-one]
25	Cc1ccc(C(=O)N2CCC3(CN(C(=O)/C=C/CN(C)C)C3)C2)s1 [XS185-97, (E)-4-(dimethylamino)-1-(6-(5-methylthiophene-2-carbonyl)-2,6-diazaspiro[3.4]octan-2-yl)but-2-en-1-one]
2	Cc1ccc(C(=O)NC2CC3CCC(C2)N3C(=O)/C=C/CN(C)C)s1 (stereo not drawn) [XS209-139, (E)-N-(8-(4-(dimethylamino)but-2-enoyl)-8-azabicyclo[3.2.1]octan-3-yl)-5-methylthiophene-2-carboxamide]
90	Cc1cccc(N2CC3CCC(C2=O)N3C(=O)/C=C/CN(C)C)c1 (stereo not drawn) [XS190-182, (E)-8-(4-(dimethylamino)but-2-enoyl)-3-(m-tolyl)-3,8-diazabicyclo[3.2.1]octan-2-one]
45	CN(C)C/C=C/C(=O)N1CCN(c2ccc(-c3ccccc3)s2)C(=O)C1 [XS175-158, (E)-4-(4-(dimethylamino)but-2-enoyl)-1-(5-phenylthiophen-2-yl)piperazin-2-one]
95	Cc1cnc(N2CC3CCC(C2=O)N3C(=O)/C=C/CN(C)C)s1 (stereo not drawn) [XS190-183, (E)-8-(4-(dimethylamino)but-2-enoyl)-3-(5-methylthiazol-2-yl)-3,8-diazabicyclo[3.2.1]octan-2-one]
39	C=CC(=O)N1CCN(c2ncc(C)s2)C(=O)C1 [XS154-148, 4-acryloyl-1-(5-methylthiazol-2-yl)piperazin-2-one]
25	Cc1ccc(N2CCN(C(=O)/C=C/CN(C)C)CC2=O)o1 [XS165-100, (E)-4-(4-(dimethylamino)but-2-enoyl)-1-(5-methylfuran-2-yl)piperazin-2-one]
2	Cc1ccc(NC(=O)C2CCN(C(=O)/C=C/CN(C)C)C2)s1 (stereo not drawn) [XS175-133, (E)-1-(4-(dimethylamino)but-2-enoyl)-N-(5-methylthiophen-2-yl)pyrrolidine-3-carboxamide]
100	CC(C)c1ccc(NC(=O)C2CCN(C(=O)CCl)CC2)s1 [XS185-6, 1-(2-chloroacetyl)-N-(5-isopropylthiophen-2-yl)piperidine-4-carboxamide]
80	CN(C)C/C=C/C(=O)N1CCN(c2csc3ccccc23)C(=O)C1 [XS185-86, (E)-1-(benzo[b]thiophen-3-yl)-4-(4-(dimethylamino)but-2-enoyl)piperazin-2-one]
92	CC(=O)Nc1ccc2sc(C(=O)N3CC4CC(C3)N4C(=O)/C=C/CN(C)C)cc2c1 [XS190-59, (E)-N-(2-(6-(4-(dimethylamino)but-2-enoyl)-3,6-diazabicyclo[3.1.1]heptane-3-carbonyl)benzo[b]thiophen-5-yl)acetamide]
10	Cc1ccc(C(=O)N2C[C@H]3C[C@@H]2CN3C(=O)/C=C/CN(C)C)s1 [XS190-81, (E)-4-(dimethylamino)-1-((1R,4R)-5-(5-methylthiophene-2-carbonyl)-2,5-diazabicyclo[2.2.1]heptan-2-yl)but-2-en-1-one]
7	Cc1ccc(C(=O)N2CC3CCC2CN3C(=O)/C=C/CN(C)C)s1 (stereo not drawn) [XS190-77, (E)-4-(dimethylamino)-1-(5-(5-methylthiophene-2-carbonyl)-2,5-diazabicyclo[2.2.2]octan-2-yl)but-2-en-1-one]
30	Cc1cccc(N2CC3CCC(C2=O)N3C(=O)/C=C/CN(C)C)n1 (stereo not drawn) [XS190-181, (E)-8-(4-(dimethylamino)but-2-enoyl)-3-(6-methylpyridin-2-yl)-3,8-diazabicyclo[3.2.1]octan-2-one]
5	C=CC(=O)N1CCC(=O)N(c2cccc(C)c2)CC1 [XS165-53, 1-acryloyl-4-(m-tolyl)-1,4-diazepan-5-one]
40	CC(=O)N1CCC2(CCC(C(=O)N3CC4CC(C3)N4C(=O)/C=C/CN(C)C)CC2)C1 (stereo not drawn) [XS209-53, (E)-1-(3-(2-acetyl-2-azaspiro[4.5]decane-8-carbonyl)-3,6-diazabicyclo[3.1.1]heptan-6-yl)-4-(dimethylamino)but-2-en-1-one]
100	CN(C)CC#CC(=O)N1CC(C(=O)Nc2cc3c(s2)CCCC3)C1 [XS224-108, 1-(4-(dimethylamino)but-2-ynoyl)-N-(4,5,6,7-tetrahydrobenzo[b]thiophen-2-yl)azetidine-3-carboxamide]
100	Cc1cccc(N2CCN(C(=O)C#C[Si](C)(C)C)CC2=O)c1 [XS165-77, 1-(m-tolyl)-4-(3-(trimethylsilyl)propioloyl)piperazin-2-one]
<5	C=CC(=O)N1CCN(c2cccc(C)n2)C(=O)C1 [XS159-90, 4-acryloyl-1-(6-methylpyridin-2-yl)piperazin-2-one]
45	Cc1cc(C)c(N2CCN(C(=O)/C=C/CN(C)C)CC2=O)s1 [XS175-45, (E)-4-(4-(dimethylamino)but-2-enoyl)-1-(3,5-dimethylthiophen-2-yl)piperazin-2-one]
10	Cc1cnc(NC(=O)C2(C)CN(C(=O)/C=C/CN(C)C)C2)o1 [XS209-23, (E)-1-(4-(dimethylamino)but-2-enoyl)-3-methyl-N-(5-methyloxazol-2-yl)azetidine-3-carboxamide]
92	CN(C)C/C=C/C(=O)N1C2CC1CN(C(=O)c1cc3c(s1)CCC3)C2 [XS190-50, (E)-1-(3-(5,6-dihydro-4H-cyclopenta[b]thiophene-2-carbonyl)-3,6-diazabicyclo[3.1.1]heptan-6-yl)-4-(dimethylamino)but-2-en-1-one]
18	Cc1ccc(NC(=O)C2CC3(C2)CN(C(=O)/C=C/CN(C)C)C3)s1 [XS175-149, (E)-2-(4-(dimethylamino)but-2-enoyl)-N-(5-methylthiophen-2-yl)-2-azaspiro[3.3]heptane-6-carboxamide]
22	CC(=O)N1CCC(C(=O)N2CC3CC(C2)N3C(=O)/C=C/CN(C)C)CC1 [XS197-6, (E)-1-(3-(1-acetylpiperidine-4-carbonyl)-3,6-diazabicyclo[3.1.1]heptan-6-yl)-4-(dimethylamino)but-2-en-1-one]
100	CC(C)c1ccc(NC(=O)C2CN(C(=O)C#CCN(C)C)C2)s1 [XS224-116, 1-(4-(dimethylamino)but-2-ynoyl)-N-(5-isopropylthiophen-2-yl)azetidine-3-carboxamide]
10	CN(C)CC#CC(=O)N1CC(C(=O)Nc2csc3ccccc23)C1 [XS224-118, N-(benzo[b]thiophen-3-yl)-1-(4-(dimethylamino)but-2-ynoyl)azetidine-3-carboxamide]
100	Cc1ccc(NC(=O)C2CN(C(=O)C#CCN(C)C)C2)s1 [XS224-110, 1-(4-(dimethylamino)but-2-ynoyl)-N-(5-methylthiophen-2-yl)azetidine-3-carboxamide]
48	CN(C)C/C=C/C(=O)N1C2CC1CN(C(=O)C1CCCCC1)C2 [XS190-129, (E)-1-(3-(cyclohexanecarbonyl)-3,6-diazabicyclo[3.1.1]heptan-6-yl)-4-(dimethylamino)but-2-en-1-one]
